Measured values taken from PMC8072159, “5-Bis-(2,6-difluoro-benzylidene) Cyclopentanone Acts as a Selective 11β-Hydroxysteroid Dehydrogenase one Inhibitor to Treat Diet-Induced Nonalcoholic Fatty Liver Disease in Mice” (Frontiers in Pharmacology, 2021).

Tests used:
11β-HSD1 [1] = target: T1, 11β-HSD1 (Rattus norvegicus, UniProt P16232); test: 11β-HSD1 reductive activity in rat liver microsomes; format: biochemical
T1 construct: from tissue; host or cells: liver microsomes of male Sprague Dawley rats, prepared in house
Experimental: (§1) Preparation of Rat and Mouse Liver and Kidney Microsomes
(§2) The liver and kidney microsomes were prepared as previously described ([Guo et al., 2012]). Briefly, the tissue was homogenized in […] phosphate buffered saline (PBS) containing 0.25 M sucrose, and the nuclei and large cell debris were removed by centrifugation at 1500 g for 10 min. The supernatant was transferred to a tube and the mitochondria were removed by centrifugation at 10, 000 × g for 30 min. The supernatant was transferred to an ultracentrifuge tube and centrifuged twice at 105,000 × g, the resulting microsomal precipitate was collected. The protein content was measured by the BCA kit according to the manufacturer’s instruction. The protein concentration was adjusted to 20 mg/ml. These proteins were used to measure 11β-HSD1 and 11β-HSD2 activities. […]
(§3) The reductive activity of 11β-HSD1 in rat, mouse, and human liver microsomes was measured as previously described ([Ge et al., 2005]). […] 11β-HSD1 activity was measured using 11-DHC or cortisone as a substrate. […] The inhibitory ability of the chemical relative to the control (DMSO solvent) was measured. […] The steroids in chloroform and methanol (90:10, v/v) were chromatographically separated on a thin layer plate, and radioactivity was measured using a scanning radiometer (System AR2000, Bioscan Inc., Washington, DC, United States). […]

11β-HSD1 [2] = target: T2, 11β-HSD1 (Mus musculus, UniProt P50172); test: 11β-HSD1 reductive activity in mouse liver microsomes; format: biochemical
T2 construct: from tissue; host or cells: mouse liver microsomes prepared in house (probably from Kunming mice)
Experimental: as §1, §2, §3

11β-HSD1 [3] = target: T1, 11β-HSD1; test: 11β-HSD1 activity in intact rat Leydig cells; format: cell-based; settings: read-out: IC50 rat Leydig cell 11β-HSD1
Experimental: Isolation of Rat Adult Leydig Cells
Leydig cells were isolated as previously described ([Ge et al., 2006]). Briefly, after a week of adjustment, eighteen 35-day-old Sprague Dawley rats were killed by asphyxiation with carbon dioxide (CO2). The testis was removed. The testis was perfused with collagenase solution through the testicular artery. The testis was digested with collagenase and DNase for 15 min, and the digested cells were filtered with nylon mesh, and the cells were separated under a Percoll gradient. The cells with density of 1.070–1.088 g/ml were collected and washed. The purity of the Leydig cell fraction was evaluated by histochemical staining of 3β-hydroxysteroid dehydrogenase using 0.4 mM etiocholanolone as a steroid substrate and 2 mM NAD + as a cofactor and tetranitroblue tetrazolium as the H^+ acceptor as previously described ([Payne et al., 1980]). More than 95% of Leydig cells are strongly stained. […] In brief, an aliquot of 10^5 cells/ml in a 0.5 ml test tube was mixed with 0.1 ml of 0.4% trypan blue at room temperature for 5 min and the cells were then loaded into a hemocytometer for counting, and the numbers of non-viable (staining) and viable (not stained) cells were counted. Viability was calculated as the percentage of viable cells divided by the total number of cells, and the viability of Leydig cells (intact Leydig cells) was over 99%. […]

T1 sequence (P16232 whole entry): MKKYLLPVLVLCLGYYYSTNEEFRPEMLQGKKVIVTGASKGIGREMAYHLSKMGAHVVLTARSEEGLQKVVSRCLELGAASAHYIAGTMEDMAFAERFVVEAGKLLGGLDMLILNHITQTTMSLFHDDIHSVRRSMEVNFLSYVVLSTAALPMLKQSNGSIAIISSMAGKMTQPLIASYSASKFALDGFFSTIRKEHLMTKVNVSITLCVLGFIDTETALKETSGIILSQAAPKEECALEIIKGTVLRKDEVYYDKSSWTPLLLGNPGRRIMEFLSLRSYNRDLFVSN
T2 sequence (P50172 whole entry): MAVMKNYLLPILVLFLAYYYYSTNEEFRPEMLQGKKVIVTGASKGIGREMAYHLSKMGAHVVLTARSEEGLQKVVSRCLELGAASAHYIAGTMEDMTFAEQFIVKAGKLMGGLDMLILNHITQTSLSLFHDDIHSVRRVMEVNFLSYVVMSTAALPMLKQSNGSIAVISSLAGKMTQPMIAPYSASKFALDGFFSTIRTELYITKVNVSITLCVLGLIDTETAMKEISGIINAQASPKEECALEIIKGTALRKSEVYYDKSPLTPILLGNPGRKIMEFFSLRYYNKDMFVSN

inhibition at 100 µM (11β-HSD1 [1]; 100 μM, initial screening, read-out: 11β-HSD1 inhibition, rat enzyme): 93.9 ± 0.42% | IC50 (11β-HSD1 [1]; rat liver microsomes, 25 nM 11DHC, NADPH): 378 nM | inhibition at 100 µM (11β-HSD1 [2]; 100 μM, initial screening, read-out: 11β-HSD1 inhibition, mouse enzyme): 94.5 ± 0.97% | IC50 (11β-HSD1 [2]; mouse liver microsomes, 25 nM 11DHC, NADPH): 244 nM | IC50 (11β-HSD1 [3]): 170 ± 3.8 nM
Compound: O=C1/C(=C/c2c(F)cccc2F)CC/C1=C\c1c(F)cccc1F [WZS08, (2E,5E)-2,5-bis(2,6-difluorobenzylidene) Cyclopentanone]
